Converted amounts (≈) assume the structure as drawn.
How the values were obtained:
[1] = physchem; conditions: octanol/water phosphate buffer, pH 7.4
[2] = Volume of distribution at steady state in rat at 1 mg/kg, iv or 3 mg/kg, po; assay type: ADME, organism-based; conditions: in vivo, read-out: Vdss
[3] = Oral bioavailability in rat at 3 mg/kg; assay type: ADME, organism-based; conditions: in vivo
[4] = Aqueous solubility of the compound at pH 7.4; assay type: physicochemical
[5] = Apparent permeability in RRCK cells from apical to basolateral side; assay type: ADME, cell-based, Canis lupus familiaris, MDCKII-LE; conditions: dog, MDCK
[6] = Tmax in freund's adjuvant-induced Lewis rat arthritis model blood at 15 mg/kg, po qd administered via oral gavage measured on day 7; assay type: ADME, organism-based

| logD [1] | also measured | Compound |
| --- | --- | --- |
| 1.9 |  | CN(c1ncnc2[nH]ccc12)[C@H]1C[C@@H](NS(=O)(=O)CC(F)(F)F)C1 |
| 2.4 |  | CC(C)CS(=O)(=O)N[C@H]1C[C@@H](N(C)c2ncnc3[nH]ccc23)C1 |
| 1 | Vd [2]: 1.99 L/kg; bioavailability [3]: 48.3%; solubility [4]: 437 µM (≈ 154 µg/mL); Papp A→B [5]: 3 ×10⁻⁶ cm/s | CN(c1ncnc2[nH]ccc12)[C@H]1C[C@@H](NS(=O)(=O)CC2COC2)C1 |
| 1.8 |  | CN(c1ncnc2[nH]ccc12)[C@H]1C[C@@H](NS(=O)(=O)CC2CC2)C1 |
| 2.1 |  | CN(c1ncnc2[nH]ccc12)[C@H]1C[C@@H](NS(=O)(=O)NCC2CC2)C1 |
| 1.3 |  | CN(CCC#N)S(=O)(=O)N[C@H]1C[C@@H](N(C)c2ncnc3[nH]ccc23)C1 |
| 2.2 | Vd [2]: 0.74 L/kg; bioavailability [3]: 119%; solubility [4]: 213 µM (≈ 71.7 µg/mL); Papp A→B [5]: 23 ×10⁻⁶ cm/s | CCCCS(=O)(=O)C[C@H]1C[C@@H](N(C)c2ncnc3[nH]ccc23)C1 |
| 1.6 |  | CN(c1ncnc2[nH]ccc12)[C@H]1C[C@@H](NS(=O)(=O)C2CC2)C1 |
| 2.1 |  | CCCNS(=O)(=O)C[C@H]1C[C@@H](N(C)c2ncnc3[nH]ccc23)C1 |
| 2.2 |  | CN(C1CC1)S(=O)(=O)N[C@H]1C[C@@H](N(C)c2ncnc3[nH]ccc23)C1 |
| 1.2 |  | COCCS(=O)(=O)N[C@H]1C[C@@H](N(C)c2ncnc3[nH]ccc23)C1 |
| 3 |  | CCCCN(C)S(=O)(=O)C[C@H]1C[C@@H](N(C)c2ncnc3[nH]ccc23)C1 |
| 2.2 |  | CN(c1ncnc2[nH]ccc12)[C@H]1C[C@@H](CS(=O)(=O)NCC2CC2)C1 |
| 2.4 |  | CN(c1ncnc2[nH]ccc12)[C@H]1C[C@@H](NS(=O)(=O)CC2CCC2)C1 |
| 1.6 |  | CCNS(=O)(=O)N[C@H]1C[C@@H](N(C)c2ncnc3[nH]ccc23)C1 |
| 1.6 |  | CN(c1ncnc2[nH]ccc12)[C@H]1C[C@@H](CS(=O)(=O)C2CC2)C1 |
| 2.7 |  | CN(c1ncnc2[nH]ccc12)[C@H]1C[C@@H](NS(=O)(=O)N2CCCCC2)C1 |
| 1.6 |  | CN(c1ncnc2[nH]ccc12)[C@H]1C[C@@H](NS(=O)(=O)NC2CC2)C1 |
| 2.4 |  | CN(c1ncnc2[nH]ccc12)[C@H]1C[C@@H](NS(=O)(=O)CCCC(F)(F)F)C1 |
| 1.2 |  | CN(c1ncnc2[nH]ccc12)[C@H]1C[C@@H](NS(=O)(=O)NCCCC#N)C1 |
| 2.6 |  | CN(c1ncnc2[nH]ccc12)[C@H]1C[C@@H](NS(=O)(=O)Cc2ccccc2)C1 |
| 2.1 |  | CCN(C)S(=O)(=O)N[C@H]1C[C@@H](N(C)c2ncnc3[nH]ccc23)C1 |

| logD [1] | also measured | Compound |
| --- | --- | --- |
| 1.5 |  | COCCCS(=O)(=O)N[C@H]1C[C@@H](N(C)c2ncnc3[nH]ccc23)C1 |
| 2.4 |  | CCCCS(=O)(=O)N[C@H]1C[C@@H](N(C)c2ncnc3[nH]ccc23)C1 |
| 1.5 |  | CCNS(=O)(=O)C[C@H]1C[C@@H](N(C)c2ncnc3[nH]ccc23)C1 |
| 1.7 |  | CCCS(=O)(=O)C[C@H]1C[C@@H](N(C)c2ncnc3[nH]ccc23)C1 |
| 1.4 |  | CCS(=O)(=O)N[C@H]1C[C@@H](N(C)c2ncnc3[nH]ccc23)C1 |
| 2.6 |  | CCCCNS(=O)(=O)C[C@H]1C[C@@H](N(C)c2ncnc3[nH]ccc23)C1 |
| 2.7 |  | CN(CC1CC1)S(=O)(=O)C[C@H]1C[C@@H](N(C)c2ncnc3[nH]ccc23)C1 |
| 2 |  | CCCNS(=O)(=O)N[C@H]1C[C@@H](N(C)c2ncnc3[nH]ccc23)C1 |
|  | Vd [2]: 1.42 L/kg; bioavailability [3]: 61.1%; solubility [4]: 259 µM (≈ 90.2 µg/mL); Papp A→B [5]: 4 ×10⁻⁶ cm/s | CN(c1ncnc2[nH]ccc12)[C@H]1C[C@@H](NS(=O)(=O)CCCC#N)C1 |
| 1.2 |  | CCS(=O)(=O)C[C@H]1C[C@@H](N(C)c2ncnc3[nH]ccc23)C1 |
| 1.2 |  | CN(c1ncnc2[nH]ccc12)[C@H]1C[C@@H](NS(C)(=O)=O)C1 |
| 2.8 |  | CN(c1ncnc2[nH]ccc12)[C@H]1C[C@@H](NS(=O)(=O)c2ccccc2)C1 |
| 2 |  | CCCS(=O)(=O)N[C@H]1C[C@H](N(C)c2ncnc3[nH]ccc23)C1 |
| 2.4 |  | CN(c1ncnc2[nH]ccc12)[C@H]1C[C@@H](NS(=O)(=O)CCC(F)(F)F)C1 |
| 2.7 |  | CN(c1ncnc2[nH]ccc12)[C@H]1C[C@@H](CS(=O)(=O)c2ccccc2)C1 |
| 2.8 |  | CN(c1ncnc2[nH]ccc12)[C@H]1C[C@@H](NS(=O)(=O)c2ccc(F)cc2)C1 |
| 2.1 |  | CN(c1ncnc2[nH]ccc12)[C@H]1C[C@@H](CS(=O)(=O)N2CCCC2)C1 |
| 1.9 | Vd [2]: 1.04 L/kg; bioavailability [3]: 95.6%; solubility [4]: 503 µM (≈ 163 µg/mL); Papp A→B [5]: 16 ×10⁻⁶ cm/s; Tmax [6]: 15 min | CCCS(=O)(=O)N[C@H]1C[C@@H](N(C)c2ncnc3[nH]ccc23)C1 [ABROCITINIB] |
| 1.2 |  | CCS(=O)(=O)N1CC(CC#N)(n2cc(-c3ncnc4[nH]ccc34)cn2)C1 [BARICITINIB] |
| 2.7 |  | N#CC[C@H](C1CCCC1)n1cc(-c2ncnc3[nH]ccc23)cn1 [RUXOLITINIB] |
| 1.1 |  | C[C@@H]1CCN(C(=O)CC#N)C[C@@H]1N(C)c1ncnc2[nH]ccc12 [TOFACITINIB] |

— ChEMBL document CHEMBL4020822, “Identification of N-{cis-3-[Methyl(7H-pyrrolo[2,3-d]pyrimidin-4-yl)amino]cyclobutyl}propane-1-sulfonamide (PF-04965842): A Selective JAK1 Clinical Candidate for the Treatment of Autoimmune Diseases” (J Med Chem, 2018)
